Biological target: T1, human GPR40 (Homo sapiens, UniProt O14842)
T1 construct: expressed in transfected cells; host or cells: HEK cells stably expressing the aequorin reporter
Test: Inositol Phosphate Turnover (IP1) Assay 2
Assay type: cell-based
Settings: HEK cells stably expressing human GPR40; 15,000 cells per well; compound acoustically transferred; CisBio IP-One kit
Method: Human and mouse GPR40 stable cell-lines were generated in CHO cells stably expressing NFAT BLA (Beta-lactamase). A human GPR40 stable cell-line was generated in HEK cells stably expressing the aequorin expressing reporter. The expression plasmids were transfected using lipofectamine (Life Technologies) following manufacturer's instructions. Stable cell-lines were generated following drug selection.
Inositol Phosphate Turnover (IP1) Assay 2:
The assay was performed in 384-well format. HEK cells stably expressing human GPR40 were plated at 15,000 cells per well in growth medium (DMEM/10% fetal calf serum). Cell plates were then incubated 16 hours at 37 degrees in a 5% CO2 incubator.
Measurement of Inositol Phosphate Turnover (IP1) was performed using the CisBio IP-One kit (Part number 62IPAPEB). After the 16 hour incubation, the cells were washed with HEPES buffer and 10 ul of stimulation buffer (prepared as described in the kit) was added to each well. In a separate plate, compounds were diluted in DMSO (400-fold over the final concentration in the assay well) and 25 nl was acoustically transferred to the appropriate well in the assay cell plate. The plates were then incubated for 60 minutes at 37 degrees. 10 ul of detection buffer (also prepared as described in the IP-One kit) was added to each well and the plates were incubated for 60 minutes in the dark. The plates were then read in a Perkin Elmer EnVision or equivalent reader able to measure FRET. Fluorescent ratio of emission at 665 and 620 nm was then converted to IP1 concentration by back calculating from an IP1 standard curve prepared at the time of the assay.

T1 sequence (O14842 whole entry): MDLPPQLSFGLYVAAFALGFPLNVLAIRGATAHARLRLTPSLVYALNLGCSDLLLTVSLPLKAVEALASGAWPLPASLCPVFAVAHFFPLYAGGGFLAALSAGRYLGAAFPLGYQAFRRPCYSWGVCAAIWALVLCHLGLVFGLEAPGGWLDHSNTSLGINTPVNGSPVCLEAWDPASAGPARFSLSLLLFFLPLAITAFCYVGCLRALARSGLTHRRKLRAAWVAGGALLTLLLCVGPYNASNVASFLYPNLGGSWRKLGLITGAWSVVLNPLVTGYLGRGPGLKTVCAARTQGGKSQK

| EC50 | Compound |
| --- | --- |
| 1.7 nM | COc1cc(-c2ccc(C3CCc4ccc([C@H](C5CC5)[C@H](C)C(=O)O)cc4O3)cc2CN2CCOCC2)c(F)cn1 (single isomer, unassigned) [Example 11a] |
| 2.4 nM | COc1cc(-c2ccc(C3CCc4ccc([C@H](C5CC5)[C@H](C)C(=O)O)cc4O3)cc2CN2CCOCC2)c(F)cn1 (single isomer, unassigned) [Example 11b] |
| 0.76 nM | COc1cc(-c2ccc(C3CCc4ccc([C@H](C5CC5)[C@H](C)C(=O)O)cc4O3)cc2CN(C)CC(F)(F)F)c(F)cn1 (single isomer, unassigned) [Example 21] |
| 0.46 nM | COc1cc(-c2ccc(C3CCc4ccc([C@H](C5CC5)[C@H](C)C(=O)O)cc4O3)cc2CN(C)CC(F)(F)F)c(F)cn1 (single isomer, unassigned) [Example 22] |
| 1.7 nM | COc1cc(-c2ccc(C3CCc4ccc([C@H](C5CC5)[C@H](C)C(=O)O)cc4O3)cc2CN2CC[C@@H](F)C2)c(F)cn1 (single isomer, unassigned) [Example 23] |
| 2.2 nM | COc1cc(-c2ccc(C3CCc4ccc([C@H](C5CC5)[C@H](C)C(=O)O)cc4O3)cc2CN2CC[C@@H](F)C2)c(F)cn1 (single isomer, unassigned) [Example 24] |
| 2.3 nM | COc1cc(-c2ccc(C3CCc4ccc([C@H](C5CC5)[C@H](C)C(=O)O)cc4O3)cc2CN2CC[C@H](F)C2)c(F)cn1 (single isomer, unassigned) [Example 25] |
| 2.5 nM | COc1cc(-c2ccc(C3CCc4ccc([C@H](C5CC5)[C@H](C)C(=O)O)cc4O3)cc2CN2CC[C@H](F)C2)c(F)cn1 (single isomer, unassigned) [Example 26] |
| 1.5 nM | COc1cc(-c2ccc(C3CCc4ccc([C@H](C5CC5)[C@H](C)C(=O)O)cc4O3)cc2CN2CC[C@@H](C(F)(F)F)C2)c(F)cn1 (single isomer, unassigned) [Example 27] |
| 1.4 nM | COc1cc(-c2ccc(C3CCc4ccc([C@H](C5CC5)[C@H](C)C(=O)O)cc4O3)cc2CN2CC[C@@H](C(F)(F)F)C2)c(F)cn1 (single isomer, unassigned) [Example 28] |
| 0.8 nM | COc1cc(-c2ccc(C3CCc4ccc([C@H](C5CC5)[C@H](C)C(=O)O)cc4O3)cc2CN2CC[C@H](C(F)(F)F)C2)c(F)cn1 (single isomer, unassigned) [Example 29] |
| 1.5 nM | COc1cc(-c2ccc(C3CCc4ccc([C@H](C5CC5)[C@H](C)C(=O)O)cc4O3)cc2CN2CC[C@H](C(F)(F)F)C2)c(F)cn1 (single isomer, unassigned) [Example 30] |
| 0.95 nM | COc1cc(-c2ccc(C3CCc4ccc([C@H](C5CC5)[C@H](C)C(=O)O)cc4O3)cc2CN2CCC(F)(F)C2)c(F)cn1 (single isomer, unassigned) [Example 31] |
| 0.84 nM | COc1cc(-c2ccc(C3CCc4ccc([C@H](C5CC5)[C@H](C)C(=O)O)cc4O3)cc2CN2CCC(F)(F)C2)c(F)cn1 (single isomer, unassigned) [Example 32] |
| 4 nM | COc1cc(-c2ccc(C3CCc4ccc([C@H](C5CCC5)[C@H](C)C(=O)O)cc4O3)cc2CN2CCCC2)c(F)cn1 (single isomer, unassigned) [Example 92] |
| 2.9 nM | COc1cc(-c2ccc(C3CCc4ccc([C@H](C5CCC5)[C@H](C)C(=O)O)cc4O3)cc2CN2CCCC2)c(F)cn1 (single isomer, unassigned) [Example 93] |
| 1.8 nM | COc1cc(-c2ccc(C3CCc4ccc([C@H](C5CCC5)[C@H](C)C(=O)O)cc4O3)cc2CN(C)C)c(F)cn1 (single isomer, unassigned) [Example 94] |
| 1.8 nM | COc1cc(-c2ccc(C3CCc4ccc([C@H](C5CCC5)[C@H](C)C(=O)O)cc4O3)cc2CN(C)C)c(F)cn1 (single isomer, unassigned) [Example 95] |
| 446 nM | COc1cc(-c2ncc([C@@H]3CCc4ccc([C@H](C5CC5)[C@H](C)C(=O)O)cc4O3)nc2CN2CCCC2)c(F)cn1 (single isomer, unassigned) [Example 110a] |
| 139 nM | COc1cc(-c2ncc([C@H]3CCc4ccc([C@H](C5CC5)[C@H](C)C(=O)O)cc4O3)nc2CN2CCCC2)c(F)cn1 (single isomer, unassigned) [Example 110b] |
| 660 nM | COc1cc(-c2ccc(C3CCc4ccc([C@H](C5CC5)[C@H](C)C(=O)O)cc4O3)cc2CN2CC[C@@H](S(C)(=O)=O)C2)c(F)cn1 (some centres unmarked) [Example 5] |
| 227 nM | COc1cc(-c2ccc(C3CCc4ccc([C@H](C5CC5)[C@H](C)C(=O)O)cc4O3)cc2CN2CC[C@H](S(C)(=O)=O)C2)c(F)cn1 (some centres unmarked) [Example 6] |
| 118 nM | COc1cc(-c2ccc(C3CCc4ccc([C@H](C5CC5)[C@H](C)C(=O)O)cc4O3)cc2CN2CC[C@H](O)C2)c(F)cn1 (some centres unmarked) [Example 7] |

| EC50 | Compound |
| --- | --- |
| 238 nM | COc1cc(-c2ccc(C3CCc4ccc([C@H](C5CC5)[C@H](C)C(=O)O)cc4O3)cc2CN2CC[C@@H](O)C2)c(F)cn1 (some centres unmarked) [Example 8] |
| 0.87 nM | COc1cc(-c2ccc(C3CCc4ccc([C@H](C5CC5)[C@H](C)C(=O)O)cc4O3)cc2CN2CCC(C(F)(F)F)C2)c(F)cn1 (some centres unmarked) [Example 14] |
| 1.1 nM | COc1cc(-c2ccc(C3CCc4ccc([C@H](C5CC5)[C@H](C)C(=O)O)cc4O3)cc2CN2CC[C@H](F)C2)c(F)cn1 (some centres unmarked) [Example 15] |
| 2.3 nM | COc1cc(-c2ccc(C3CCc4ccc([C@H](C5CC5)[C@H](C)C(=O)O)cc4O3)cc2CN2CC[C@@H](F)C2)c(F)cn1 (some centres unmarked) [Example 16] |
| 11 nM | COc1cc(-c2ccc(C3CCc4ccc([C@H](C5CC5)[C@H](C)C(=O)O)cc4O3)cc2CN2CC[C@@H](OC)C2)c(F)cn1 (some centres unmarked) [Example 18] |
| 6.4 nM | COc1cc(-c2ccc(C3CCc4ccc([C@H](C5CC5)[C@H](C)C(=O)O)cc4O3)cc2CN2CC[C@H](OC)C2)c(F)cn1 (some centres unmarked) [Example 19] |
| 0.84 nM | COc1cc(-c2ccc(C3CCc4ccc([C@H](C5CC5)[C@H](C)C(=O)O)cc4O3)cc2CN(C)CC(F)(F)F)c(F)cn1 (some centres unmarked) [Example 20] |
| 1.9 nM | CNCc1cc([C@@H]2CCc3ccc([C@H](C4CC4)[C@H](C)C(=O)O)cc3O2)ccc1-c1cc(OC)ncc1F [Example 34, Sodium (2S,3R)-3-cyclopropyl-3-((S)-2-(4-(5-fluoro-2-methoxypyridin-4-yl)-3-((methylamino)methyl)phenyl)chroman-7-yl)-2-methylpropanoate] |
| 2.1 nM | COC[C@@H]1CCCN1Cc1cc(C2CCc3ccc([C@H](C4CC4)[C@H](C)C(=O)O)cc3O2)ccc1-c1cc(OC)ncc1F (some centres unmarked) [Example 36] |
| 1.8 nM | COc1cc(-c2ccc(C3CCc4ccc([C@H](C5CC5)[C@H](C)C(=O)O)cc4O3)cc2CN2CCC[C@@H]2C)c(F)cn1 (some centres unmarked) [Example 38] |
| 2.1 nM | COc1cc(-c2ccc(C3CCc4ccc([C@H](C5CC5)[C@H](C)C(=O)O)cc4O3)cc2CN2CCC3OCCC32)c(F)cn1 (some centres unmarked) [Example 39] |
| 13 nM | COc1cc(-c2ccc(C3CCc4ccc([C@H](C5CC5)[C@H](C)C(=O)O)cc4O3)cc2CN2CCC3(CCCO3)C2)c(F)cn1 (some centres unmarked) [Example 41] |
| 2.1 nM | COc1cc(-c2ccc(C3CCc4ccc([C@H](C5CC5)[C@H](C)C(=O)O)cc4O3)cc2CN2CC3CC2CO3)c(F)cn1 (some centres unmarked) [Example 43] |
| 1.8 nM | COC[C@H]1CCCN1Cc1cc(C2CCc3ccc([C@H](C4CC4)[C@H](C)C(=O)O)cc3O2)ccc1-c1cc(OC)ncc1F (some centres unmarked) [Example 44] |
| 3.6 nM | COc1cc(-c2ccc(C3CCc4ccc([C@H](C5CC5)[C@H](C)C(=O)O)cc4O3)cc2CN2CCCC(OC)C2)c(F)cn1 (some centres unmarked) [Example 48] |
| 1.3 nM | COc1cc(-c2ccc(C3CCc4ccc([C@H](C5CC5)[C@H](C)C(=O)O)cc4O3)cc2CN2CCC[C@H]2C)c(F)cn1 (some centres unmarked) [Example 50] |
| 1 nM | COc1cc(-c2ccc(C3CCc4ccc([C@H](C5CC5)[C@H](C)C(=O)O)cc4O3)cc2CN2CCOC[C@@H]2C)c(F)cn1 (some centres unmarked) [Example 51] |
| 13 nM | COc1cc(-c2ccc(C3CCc4ccc([C@H](C5CC5)[C@H](C)C(=O)O)cc4O3)cc2CN2CCC3(CCO3)C2)c(F)cn1 (some centres unmarked) [Example 54] |
| 7 nM | COc1cc(-c2ccc(C3CCc4ccc([C@H](C5CC5)[C@H](C)C(=O)O)cc4O3)cc2CN2CCC2C)c(F)cn1 (some centres unmarked) [Example 56] |
| 1.1 nM | COC[C@@H]1CC[C@@H](COC)N1Cc1cc(C2CCc3ccc([C@H](C4CC4)[C@H](C)C(=O)O)cc3O2)ccc1-c1cc(OC)ncc1F (some centres unmarked) [Example 58] |
| 0.59 nM | COc1cc(-c2ccc(C3CCc4ccc([C@H](C5CC5)[C@H](C)C(=O)O)cc4O3)cc2CN2[C@H](C)COC[C@H]2C)c(F)cn1 (some centres unmarked) [Example 60] |
| 2 nM | COC[C@H]1CC[C@H](COC)N1Cc1cc(C2CCc3ccc([C@H](C4CC4)[C@H](C)C(=O)O)cc3O2)ccc1-c1cc(OC)ncc1F (some centres unmarked) [Example 65] |

| Compound | EC50 |
| --- | --- |
| COc1cc(-c2ccc(C3CCc4ccc([C@H](C5CC5)[C@H](C)C(=O)O)cc4O3)cc2CN2C3CCC2CC(OC)C3)c(F)cn1 (some centres unmarked) [Example 37] | 4.7 nM |
| COc1cc(-c2ccc(C3CCc4ccc([C@H](C5CC5)[C@H](C)C(=O)O)cc4O3)cc2CN2C3CCC2COC3)c(F)cn1 (some centres unmarked) [Example 68] | 0.7 nM |
